Laboratory results taken from the NIST ThermoML archive (doi:10.1021/je700373r).

Experiment: xn = mol fraction of the nth substance listed
Settings: Fluid (supercritical or subcritical phases), Vibrating tube method

CC1=C(/C=C/C(C)=C/C=C/C(C)=C/C=C/C=C(C)/C=C/C=C(C)/C=C/C2=C(C)CCCC2(C)C)C(C)(C)CCC1 [β-carotene] + O=C=O
mass density [kg/m3]
Settings | x1 = 1.5e-06 | x1 = 2.2e-06 | x1 = 2.9e-06 | x1 = 4.3e-06 | x1 = 4.8e-06 | x1 = 5.5e-06 | x1 = 6.5e-06
308.15 K, 10000 kPa | 717.5 | 717.7 | 717.9 | 717.6 | 717.8 | 718.3 | 717.8
308.15 K, 15000 kPa | 816.3 | 816.4 | 816.5 | 816.4 | 816.4 | 816.7 | 816.4
308.15 K, 20000 kPa | 866.3 | 866.3 | 866.3 | 866.4 | 866.4 | 866.5 | 866.4
308.15 K, 30000 kPa | 929.1 | 929.1 | 929.1 | 929.1 | 929.3 | 929.2 | 929.1
308.15 K, 40000 kPa | 971.8 | 971.9 | 971.9 | 971.9 | 972 | 972 | 971.9
313.15 K, 10000 kPa | 636.7 | 637.3 | 637.2 | 637.2 | 637.7 | 637.8 | 637.3
313.15 K, 15000 kPa | 781.5 | 781.6 | 781.6 | 781.6 | 781.8 | 781.9 | 781.6
313.15 K, 20000 kPa | 840.4 | 840.4 | 840.4 | 840.4 | 840.6 | 840.7 | 840.4
313.15 K, 30000 kPa | 909.9 | 909.9 | 909.9 | 909.9 | 910 | 910.1 | 909.9
313.15 K, 40000 kPa | 955.7 | 955.7 | 955.7 | 955.7 | 955.8 | 955.9 | 955.7
323.15 K, 10000 kPa | 398.3 | 397.9 | 398.9 | 398.2 | 398.4 | 398.5 | 398.2
323.15 K, 15000 kPa | 702 | 701.8 | 702.1 | 702 | 702.1 | 702.2 | 702
323.15 K, 20000 kPa | 785 | 784.9 | 785.1 | 785 | 785.2 | 785.3 | 785
323.15 K, 30000 kPa | 870.5 | 870.5 | 870.5 | 870.5 | 870.6 | 870.7 | 870.5
323.15 K, 40000 kPa | 922.9 | 923 | 923 | 923 | 923 | 923.1 | 923
333.15 K, 10000 kPa | 296.5 | 297.2 | 296.7 | 296.6 | 296.9 | 297 | 296.6
333.15 K, 15000 kPa | 607.3 | 607.7 | 607.7 | 607.4 | 607.7 | 607.8 | 607.4
333.15 K, 20000 kPa | 724.5 | 724.7 | 724.7 | 724.7 | 724.7 | 725 | 724.6
333.15 K, 30000 kPa | 829.7 | 829.7 | 829.7 | 829.7 | 829.8 | 829.9 | 829.7
333.15 K, 40000 kPa | 889.8 | 889.8 | 889.9 | 889.9 | 890 | 890 | 889.9
